Test results reported in patent publication US8034936B2, “Spirocyclic cyclohexane compounds useful to treat substance dependency” (Gruenenthal GmbH, priority 2005, dated 2011).

Legend:
[1] = target: human μ-opiate receptor (Homo sapiens, UniProt P35372); test: μ-opiate receptor binding, [3H]-naloxone displacement, CHO-K1 membrane preparation; settings: No. 1-49
[2] = target: HERG channel (Homo sapiens, UniProt Q12809); settings: read-out: IC50, HERG channel; Katchman et al. 2002; cited from earlier work
[3] = tested on: mice; settings: mouse, in vivo, ip, 30 mg/kg

Sequence of human μ-opiate receptor (P35372 whole entry): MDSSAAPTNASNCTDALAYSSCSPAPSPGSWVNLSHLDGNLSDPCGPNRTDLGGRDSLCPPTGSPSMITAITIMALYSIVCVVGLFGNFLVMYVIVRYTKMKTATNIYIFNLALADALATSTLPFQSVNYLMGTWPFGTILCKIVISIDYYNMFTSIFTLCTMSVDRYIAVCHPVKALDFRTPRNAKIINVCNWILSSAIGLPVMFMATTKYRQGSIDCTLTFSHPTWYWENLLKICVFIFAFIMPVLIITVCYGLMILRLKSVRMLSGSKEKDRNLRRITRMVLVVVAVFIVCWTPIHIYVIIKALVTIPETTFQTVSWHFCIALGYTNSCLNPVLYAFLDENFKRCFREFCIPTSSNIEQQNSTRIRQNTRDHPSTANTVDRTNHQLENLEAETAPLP
Sequence of HERG channel (Q12809 whole entry): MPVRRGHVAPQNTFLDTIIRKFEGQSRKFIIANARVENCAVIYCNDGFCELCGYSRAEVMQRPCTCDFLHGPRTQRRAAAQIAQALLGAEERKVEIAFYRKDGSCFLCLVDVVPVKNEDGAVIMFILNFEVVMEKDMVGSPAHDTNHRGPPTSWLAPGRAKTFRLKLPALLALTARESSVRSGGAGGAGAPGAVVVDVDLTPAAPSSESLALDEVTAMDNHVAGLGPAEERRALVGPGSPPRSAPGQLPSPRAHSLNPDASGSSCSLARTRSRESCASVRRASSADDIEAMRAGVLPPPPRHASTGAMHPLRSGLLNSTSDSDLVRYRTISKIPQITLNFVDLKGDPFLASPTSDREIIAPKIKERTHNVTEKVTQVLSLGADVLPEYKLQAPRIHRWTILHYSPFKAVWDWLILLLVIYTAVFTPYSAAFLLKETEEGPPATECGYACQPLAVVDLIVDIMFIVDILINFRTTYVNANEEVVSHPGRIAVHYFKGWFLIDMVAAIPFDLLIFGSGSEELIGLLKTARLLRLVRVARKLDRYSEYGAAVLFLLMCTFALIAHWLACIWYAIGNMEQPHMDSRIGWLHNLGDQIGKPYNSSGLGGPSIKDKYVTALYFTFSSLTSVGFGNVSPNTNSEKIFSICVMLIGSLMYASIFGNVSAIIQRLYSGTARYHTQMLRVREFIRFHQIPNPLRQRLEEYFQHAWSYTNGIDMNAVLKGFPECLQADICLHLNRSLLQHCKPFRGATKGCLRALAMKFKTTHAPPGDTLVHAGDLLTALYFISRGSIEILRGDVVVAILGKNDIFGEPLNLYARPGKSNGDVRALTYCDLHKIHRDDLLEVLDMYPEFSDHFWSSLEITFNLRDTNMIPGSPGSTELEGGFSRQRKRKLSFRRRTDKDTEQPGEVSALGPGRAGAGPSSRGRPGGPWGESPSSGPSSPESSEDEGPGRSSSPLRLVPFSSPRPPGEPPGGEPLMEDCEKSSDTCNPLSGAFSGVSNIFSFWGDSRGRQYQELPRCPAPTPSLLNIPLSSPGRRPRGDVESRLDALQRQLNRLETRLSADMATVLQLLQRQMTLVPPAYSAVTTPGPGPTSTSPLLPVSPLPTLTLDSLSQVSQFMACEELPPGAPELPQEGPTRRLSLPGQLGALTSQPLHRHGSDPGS

## CN(C)C1(c2ccccc2)CCC2(CC1)NCCc1c2oc2ccccc12 (stereo not drawn) [Example 12, 1,1-(3-dimethylamino-3-phenylpentamethylene)-1,3,4,9-tetrahydro-2-aza-9-oxafluorene]
[1]
  Ki: 0.17 µM

## CCC(=O)C(CC(C)N(C)C)(c1ccccc1)c1ccccc1 (racemic) [methadone]
[2]
  IC50: 9.8 µM

## CCC(=O)C(C[C@@H](C)N(C)C)(c1ccccc1)c1ccccc1 [Levomethadone, levomethadone]
[3]
  withdrawal jumping triggered by naloxone: induced withdrawal jumping
